Earlier results in EP0882446A1, “Antimicrobial skin cleansing compositions” (GOJO INDUSTRIES,INC., priority 1997, dated 1998).

Experiments:
[1] = tested on: wide spectrum of bacteria; conditions: against a wide spectrum of bacteria; reported
[2] = at levels below about 3 percent by weight

Structure (SMILES): Cc1cc(O)cc(C)c1Cl [PCMX, 4-chloro-3,5-dimethyl phenol]
- antimicrobial activity relative to phenol [1]: 60 times
- toxicity and irritation to human skin [2]: non-toxic and non-irritating
